13 compounds from US10934258B2, “Materials for use in an aqueous organic redox flow battery” (Utah State University, priority 2016, dated 2021) can be followed below.

A word on the solubility: it is the dissolved amount per volume that the medium holds.

Converted amounts (≈) assume the structure as drawn. “And” between values parts separate entries of the source, which are not always exact repeats. Equal values may be shown once.

Data set [1] is described as follows: Solubility by preparing a super-saturated solution. To be noted: for solubility: thermodynamic from solid. The protocol: Chemicals and Materials. All chemicals were purchased from Aldrich or TCI, stored in an Argon glovebox, and used directly. Solubility of substituted ferrocene compounds was measured in water by preparing a super-saturated solution in a volumetric cylinder. Deionized water was purged overnight using N2 before use. All experimental operations were conducted under a N2 atmosphere. Conductivity of the electrolyte solutions was measured using a Mettler Toledo conductivity meter at R.T. NMR studies were conducted using a Bruker 500 MHz NMR spectrometer. UV-Vis was collected using an Ocean Optic spectrometer. Elemental analysis was done at Atlantic Microlab.
Calculation of theoretical energy density: The theoretical energy density of the FcNCl/MV AORFB was calculated using equation 3 below, where n is the number of electrons involved into the cell reaction, C is the concentration of active materials, F is Faraday constant, 26.8 Ah/mol, V is the cell voltage, and 2 represents a factor considering both volumes of anolyte and catholyte. Solubility of FcNCl and MV was measured in water respectively by preparing a super-saturated solution. Similar solubility tests in water were applied for ferrocenecarboxylic acid, 1-1′-ferrocenedicarboxilic acid, ferrocenecarboxylic acid, and 1,1′-ferrocenedimethanol. Energy density (Wh/L)=nCFV/2 (equation 3)

Data set [2] in a line: Cyclic and square wave voltammetry (redox potentials). Type of data set: physicochemical. To be noted: for redox / reversible oxidation potential of catholyte: electrolyte not stated; for redox potential (redox wave in cyclic voltammogram) / Exp. E1/2, first reduction / Exp. E1/2, second reduction: 4 mM in 0.5 M NaCl; for Exp. E1/2, first reduction: first redox couple; for Exp. E1/2, second reduction: second redox couple. The protocol: Electrochemical Cyclic voltammetry (CV) studies. All electrochemical CV experiments were carried out in 0.5 M NaCl electrolyte solutions. Cyclic voltammetry experiments were performed with a Gamry 1000E potentiostat. All potentials were referenced to NHE according to the known MV^2+/1+ redox couple (−0.45 V vs NHE). The working electrode (1 mm PEEK-encased glassy carbon, Cypress Systems EE040) was polished using Al2O3(BAS CF-1050, dried at 150° C. under vacuum) suspended in deionized H2O, then rinsed with deionized H2O and dried with an air flow. The reference electrode was a silver wire coated with a layer of AgCl and suspended in a solution of 0.5 M NaCl electrolyte. A glassy carbon rod (Structure Probe, Inc.) was used as the counter electrode.
Cyclic and square wave voltammetry studies: All experiments were conducted in an […], 0.5 M NaCl aqueous solution, and performed with a Gamry 1000E potentiostat. A 1 mm PEEK encased glassy carbon disk was used as the working electrode. The working electrode was polished with 0.05 micron Al2O3 powder and rinsed with deionized H2O. A glassy carbon rod was used as the counter electrode. A silver wire coated with AgCl and suspended in 3.0 M KCl electrolyte was used as the reference electrode.
The redox potentials were calculated directly versus MV which was derived from the Born-Haber method. This calculation predicts the redox potential of the viologen by comparing it to the experimentally determined potentials for MV. Square wave voltammetry was employed to most accurately measure E1/2 for the two reductions of viologen compounds (FIG. 42). The calculation of the theoretical redox potential vs MV can be simplified as shown below: […]

A short description of data set [3]: Conductivity of the electrolyte solutions. It counts as physicochemical. Further details: electrolyte conductivity: unit not given here. As for the experimental part:
Chemicals and Materials. […] Deionized water was purged overnight using N2 before use. All experimental operations were conducted under a N2 atmosphere. […] UV-Vis was collected using an Ocean Optic spectrometer. Elemental analysis was done at Atlantic Microlab.

Data set [4] can be described thus: RDE linear sweep voltammetry with Levich and Tafel analysis. To be noted: 1.0 mM in 0.5 M NaCl. Type of data set: physicochemical. As for the experimental part:
Electrochemical RDE studies: All linear sweep voltammetry (LSV) studies were conducted using a Gamry 1000E potentiostat in a three-electrode configuration, a glassy carbon disk working electrode (5 mm Teflon encased glassy carbon disk, Pine Research Instrumentation) along with a glassy carbon counter electrode and a Ag/AgCl reference electrode same as used in CV studies. Before data collection, the disk electrode was prepared using the procedure described in the CV studies. The electrode was then rotated at from 300 to 2400 rpm with an increment of 300 rpm, which was controlled by a Pine MSR rotator system. LSV scans were recorded at a rate of 5 mV/s from 0.3 V to 0.8 V vs NHE. At each rotation rate, the LSV were recorded 3 times to ensure repeatability. The limiting currents (i.e. the mass transport-limited current intensity) were taken at 0.7 V vs NHE for FcNCl and plotted over the square root of the rotation rate (rad/s). The data were fitted to yield a straight Levich plot, with the slope defined by the Levich equation (equation 1 below), where n=1 for one electron process, Faraday's constant F=96485 C/mol, electrode area A=0.1935 cm^2, FcNCl concentration Co=1.0 mM, D is diffusion coefficient, kinematic viscosity n=0.009 cm^2/s for 0.5 M NaCl solution. The calculations yielded the diffusion coefficients of FcNCl as 3.25×10^−6 cm^2/s. A plot of overpotential versus log10(iK) was constructed for the LSV data collected at […] for FcNCl where iK is the kinetic current for the oxidation of FcNCl. […] Levich plot slope=0.620nFACOD^2/3v^−1/6 (equation 1) i0=FACOk0 (equation 2)
Electrochemical RDE studies: Linear sweep voltammetry (LSV) experiments were conducted using a Gamry 1000E potentiostat with a three-electrode system. A 5 mm rotating glassy carbon disk encased in Teflon served as the working electrode. A glassy carbon rod was used as the counter electrode. A Ag/AgCl wire served as the reference electrode. The working electrode was cleaned using the same method as in the CV experiments. During the experiments, the working electrode rotated from 300 rpm to 2400 rpm at increments of 300 rpm. Three scans at each rotation rate were collected to ensure accuracy. (NPr)2V: LSV scans were conducted at a rate of 5 mV/s from 0.1 V to −1.2 V versus NHE. The limiting currents (mass transport-limited current intensity) at each rotation rate were recorded at −0.57 V and −0.95 V versus NHE. […] The slopes of these fitted lines are defined by the Levich equation, Levich Plot Slope=0.620nFAC0D^2/3v^−1/6 (equation 1)
[…] Plots of overpotential versus log10(ik) were constructed from the 2400 rpm LSV, where ik is the kinetic current of each reduction of (NPr)2V. The x-intercept of the fitted Tafel plot represents the log of the exchange current i0 that is defined by: i0=FAC0k^0 (equation 2)
where F, A, and C0 are defined above, and k^0 represents the electron transfer rate constant.
(NPr)(SPr)V, (Me)(NPr)V, (SPr)2V, and [FcN^Et]Br: LSV scans were collected and analyzed using the same techniques described for (NPr)2V.

In the case of `CC1(C)CC([N+](C)(C)CCC[N+](C)(C)C)CC(C)(C)N1O` [4-N^NPr-TEMPO, N^1, N^1, N^1, N^3, N^3,2,2,6,6-nonamethyl-N^3-(piperidinyloxy)propane-1,3-bis(ammonium) dichloride], the solubility in data set [1] (water) is 2300 mM. Further, the “redox / reversible oxidation potential of catholyte” value in data set [2] came out at 1.06 V vs NHE.
`CC[N+](C)(C)C[c-]1cccc1.[Br-].[Fe+2].c1cc[cH-]c1` [[FcN^Et]Br, (ferrocenylmethyl)ethyldimethylammonium bromide] gave a solubility in data set [1] (water) of 3750 mM. In data set [2], the “redox potential (redox wave in cyclic voltammogram)” value is on record as 0.60 V vs NHE.
For the compound `[I-].[K+]` [KI, reference compound], in data set [2], the “redox / reversible oxidation potential of catholyte” value is reported as 0.65 V vs NHE.
In the case of `CC1(C)CC([N+](C)(C)C)CC(C)(C)N1[O].[Cl-]` [4-N^Me-TEMPO, N, N, N, 2,2,6,6-Heptamethylpiperidinyloxy-4-ammonium chloride], the “solubility in H2O” value in data set [1] was 2500 mM. The “redox / reversible oxidation potential of catholyte” value in data set [2] is given as 1.06 V vs NHE.
For `C[N+](C)(C)C[c-]1cccc1.[Cl-].[Fe+2].c1cc[cH-]c1` [FcNCl, (ferrocenylmethyl)trimethylammonium chloride], the electrolyte conductivity in data set [3] (0.5 M in 2.0 M NaCl) was 135. The compound further registered a solubility in data set [1] (water) of approximately 4000 mM. The “diffusion coefficient (oxidation)” value in data set [4] (Levich) was 3.25×10^−6 cm^2/s and 3.74×10^−6 cm^2/s. In addition, the “electron transfer rate constant k0 (oxidation)” value in data set [4] (Tafel) was 2.29e-05 cm/s and 3.66e-05 cm/s. For the same compound, in data set [4] (Tafel X-intercept), the “exchange current i0” value is 0.7 μA. The “redox potential (redox wave in cyclic voltammogram)” value in data set [2] turned out to be 0.60 V vs NHE.
As to `C[N+](C)(C)CCC[c-]1cccc1.[Cl-].[Fe+2].c1cc[cH-]c1` [prop-FcNCl, (ferrocenylpropyl)trimethylammonium chloride], in data set [1] (water), the solubility is approximately 2200 mM.
For `C[n+]1ccc(-c2cc[n+](CCC[N+](C)(C)C)cc2)cc1.[Cl-].[Cl-].[Cl-]` [(Me)(NPr)V, 1′-methyl-4′-pyridinium-1-[3-(trimethylaminium)propyl]-4-pyridinium trichloride], in data set [1], the “solubility in H2O” value was found to be 1800 mM and the “solubility in water, [C]” value worked out at 1800 mM. Further, in data set [4] (Levich), the “diffusion constant, D, first reduction” value is recorded as 5.40 × 10^−6 cm^2/s and the “diffusion constant, D, second reduction” value is listed as 5.29 × 10^−6 cm^2/s. For the same compound, in data set [4] (Tafel), the “electron transfer rate constant, k^0, first reduction” value is 2.39e-05 cm/s and the “electron transfer rate constant, k^0, second reduction” value amounted to 1.84e-05 cm/s. Besides, in data set [2], the “Exp. E1/2, first reduction” value is −0.39 V vs. NHE and the “Exp. E1/2, second reduction” value was −0.78 V vs. NHE.
`CC(C[N+](C)(C)C[c-]1cccc1)[N+](C)(C)C.[Br-].[Br-].[Fe+2].c1cc[cH-]c1` (stereo not shown) [FcN2, N^1-ferrocenylmethyl-N^1, N^1, N^2, N^2, N^2-pentamethylpropane-1,2-diaminium dibromide]: the “redox potential (redox wave in cyclic voltammogram)” value in data set [2] is 0.62 V vs NHE.
In the case of `[Br-].[Br-].[Zn+2]` [ZnBr2, reference compound], the “redox potential (redox wave in cyclic voltammogram)” value in data set [2] is on record as −1.2 V vs NHE.
With `C[N+](C)(C)CCC[n+]1ccc(-c2cc[n+](CCC[N+](C)(C)C)cc2)cc1.[Br-].[Br-].[Br-].[Br-]` [(NPr)2V, 1,1′-bis[3-(trimethylamonium)propyl]-4,4′-bipyridinium, tetrabromide], in data set [1], the “solubility in H2O” value is 1600 mM and the “solubility in water, [C]” value came to 1600 mM. In data set [4] (Levich), the “diffusion constant, D, first reduction” value is given as 3.88×10^−6 cm^2/s and the “diffusion constant, D, second reduction” value is 3.84×10^−6 cm^2/s. In data set [4] (Tafel), the “electron transfer rate constant, k^0, first reduction” value was 4.32e-06 cm/s and 4.32e-05 cm/s; the “electron transfer rate constant, k^0, second reduction” value is 2.46e-06 cm/s and 2.46e-05 cm/s. Also, in data set [2] (average of −0.35 and −0.72 V), the “effective redox potential (average of the two reductions)” value is given as −0.54 V. In data set [2], the “Exp. E1/2, first reduction” value was −0.35 V vs. NHE and the “Exp. E1/2, second reduction” value is listed as −0.72 V vs. NHE.
In data set [3] (0.6 M in 1.5 M KCl), `O=S(=O)([O-])CCC[n+]1ccc(-c2cc[n+](CCCS(=O)(=O)[O-])cc2)cc1` [(SPr)2V, 1,1′-bis[3-sulfonatopropyl]-4,4′-bipyridinium] returned a conductivity of 103.2 mS/cm. Also, in data set [1], the “solubility in water, [C]” value stood at 2000 mM (≈ 801 mg/mL). In data set [1] (saline or isotonic), the concentration in solution (solubility) came to 1700 mM (≈ 681 mg/mL). The solubility in data set [1] (water) was 2000 mM (≈ 801 mg/mL). Besides, in data set [4] (Levich), the “diffusion constant, D, first reduction” value was 3.26×10^−6 cm^2/s and the “diffusion constant, D, second reduction” value is 2.81 × 10^−6 cm^2/s. In data set [4] (Tafel), the “electron transfer rate constant, k^0, first reduction” value is 1.49e-05 cm/s and the “electron transfer rate constant, k^0, second reduction” value is 3.96e-05 cm/s. Further, in data set [2], the “Exp. E1/2, first reduction” value was −0.43 V vs. NHE and the “Exp. E1/2, second reduction” value is −0.79 V vs. NHE.
Regarding `C[N+](C)(C)CCC[n+]1ccc(-c2cc[n+](CCCS(=O)(=O)[O-])cc2)cc1.[Br-].[Br-]` [(NPr)(SPr)V, 1′-[3-(trimethylammonium)propyl]-4′-pyridinium-1-[3-sulfonatopropyl]-4-pyridinium dibromide], in data set [1], the “solubility in H2O” value was found to be 1600 mM and the “solubility in water, [C]” value came to 1600 mM. Also, in data set [4] (Levich), the “diffusion constant, D, first reduction” value is 4.96 × 10^−6 cm^2/s and the “diffusion constant, D, second reduction” value is reported as 5.04 × 10^−6 cm^2/s. Also, in data set [4] (Tafel), the “electron transfer rate constant, k^0, first reduction” value was found to be 3.5e-05 cm/s and the “electron transfer rate constant, k^0, second reduction” value is 2.09e-05 cm/s. Further, in data set [2], the “Exp. E1/2, first reduction” value is reported as −0.37 V vs. NHE and the “Exp. E1/2, second reduction” value is listed as −0.74 V vs. NHE.
For the compound “disodium (ferrocenyl)sulfurtrioxide [FcS]”, in data set [2], the “redox potential (redox wave in cyclic voltammogram)” value is ~0.77 V vs NHE and 1.0 V vs NHE.
